Data on six compounds can be found in paper PMC6690489 (Bioorganic & medicinal chemistry letters, 2018).

Data set [1] in a line: predicted hepatic clearance. The settings on record: rat. The format is in vitro ADME.
The next data set has as its target T1, human M4 (Homo sapiens, UniProt P08173).
T1 sequence (P08173 1-479): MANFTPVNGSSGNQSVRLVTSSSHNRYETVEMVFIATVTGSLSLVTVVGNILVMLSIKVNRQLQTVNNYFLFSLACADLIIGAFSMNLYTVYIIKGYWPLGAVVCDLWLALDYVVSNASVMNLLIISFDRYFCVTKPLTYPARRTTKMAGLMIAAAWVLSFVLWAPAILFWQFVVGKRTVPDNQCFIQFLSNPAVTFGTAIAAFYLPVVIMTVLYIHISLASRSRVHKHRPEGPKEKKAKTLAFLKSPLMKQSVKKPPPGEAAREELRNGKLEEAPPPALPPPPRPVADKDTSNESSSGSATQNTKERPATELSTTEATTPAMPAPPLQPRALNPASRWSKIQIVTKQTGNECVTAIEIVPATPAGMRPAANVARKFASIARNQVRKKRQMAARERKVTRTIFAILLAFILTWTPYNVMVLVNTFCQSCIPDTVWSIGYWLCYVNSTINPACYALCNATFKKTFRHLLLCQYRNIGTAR
As to the kind of experiment: calcium mobilization human M4/Gqi5 assay with EC20 acetylcholine. The format is cell-based.

The next data set deals with CYP450. Description: CYP450 inhibition profile. The format is in vitro ADME.

For `Cc1nc2sc3c(NCC4CC4)nn(C)c3c2c(C)c1Cl` [27d], the “predicted hepatic clearance CLhep” value in data set [1] is reported as over 67 mL/min/kg.

Consider `COc1ccc(CNC(=O)c2cc3c(C)c(C)nnc3s2)cc1F` [18a], for which, at human M4 (des-amino analog vs NH2-bearing 4), the “loss of potency relative to parent 4” value was ~ 18 fold.

In the data set on CYP450, `Cc1nnc2sc3c(NCc4ccc(S(C)(=O)=O)c(F)c4)nn(C)c3c2c1C` [30b] yielded an IC50 of over 30 µM.

Regarding `Cc1nc2sc3c(NCc4ccco4)nn(C)c3c2c(C)c1Cl` [27e], the “predicted hepatic clearance CLhep” value in data set [1] was over 67 mL/min/kg.

For `COc1ccc(CNc2n[nH]c3c2sc2nc(C)cc(C)c23)cc1` [22a], the “predicted hepatic clearance CLhep” value in data set [1] is 66 mL/min/kg. The concentration for half-maximal inhibition (IC50) in the data set with CYP450 is under 5 µM.

In the case of `COc1ccc(CNc2nn(C)c3c2sc2nnc(C)c(C)c23)cc1` [30a], the EC50 on human M4 amounted to 0.044 µM. In data set [1], the “predicted hepatic clearance CLhep” value is 67.8 mL/min/kg.
